pIC50: −log10 of the molar value. Structures can show the parent of a compound that is named as a salt. Non-standard residues stand in square brackets, D forms with d. Residues, ends and D or L forms follow the SMILES beside them. Dolaproine = CO[C@@H]([C@@H]1CCCN1)[C@@H](C)C(=O)O; Dil = CC[C@H](C)[C@H](NC)[C@@H](CC(=O)O)OC; NMeV = CN[C@H](C(=O)O)C(C)C
Tests used:
[1] = system: HepG2 cells; test: cells; type: cell-based, human; conditions: FMCA, 72 h incubation, 37 °C, 384-well, 1000 cells/well, mean and 95 % confidence interval, three independent experiments
Procedure: (§1) Three fundamentally different cell lines were chosen for the assessment of cytotoxicity: HepG2 cells, which derive from a human hepatoblastoma; ^[43] HCT116 cells, a common model for the study of metastatic colorectal carcinoma;[ ^44 , ^45 ] and RPMI 8226 cells, which originate from multiple myeloma. ^[46]
(§2) The cells, upon overnight cultivation, were treated with MMAE (5), MMAF (6), azastatin‐OMe (7), N‐ethyl azastatin‐OMe (28), N‐Cbz azastatin‐OMe (27) or doxorubicin[ ^47 , ^48 ] at concentrations ranging from 100 μM to 10 pM and after 72 hours of incubation, the survival index relative to control was determined by The Fluorometric Microculture Cytotoxicity Assay (FMCA). ^[49] Based upon the concentration dependent proportion of surviving cells, the half maximal inhibitory concentration (IC50) of each compound was calculated (see Table 1).
(§3) MMAE and MMAF were purchased from Combi‐Blocks (US). Doxorubicin hydrochloride was obtained from Sigma‐Aldrich/Merck (Germany). HepG2 cells (human hepatocellular carcinoma cells, ATCC), were grown in Eagle's Minimum Essential Medium (ATCC). RPMI 8226 (multiple myeloma cells, ATCC) were grown in complete RPMI medium (ATCC). HCT116 cells (colon carcinoma cells, Anticancer Inc.) were cultured in McCoy′s 5 A Modified Medium (Sigma‐Aldrich). All media were supplemented with 10 % foetal bovine serum, penicillin/streptomycin (100 U/100 μg/mL) and 2 mM L‐glutamine. Cells were seeded in 384‐well assay plates at a density of 1000 cells/well. The cells were incubated over night at 37 °C and test compounds were added, followed incubation for an additional 72 h at 37 °C. The fraction of surviving cells was analysed by a fluorometric microculture cytotoxicity assay, based on hydrolysis of fluorescein diacetate to fluorescein by cells with intact plasma membranes, as recently described. ^[49] IC50‐values were calculated from three independent experiments (see SI, mean±SEM). All tested concentrations were assessed in multiple wells (n=2‐4) in each experiment. The IC50‐values were determined with nonlinear regression analysis using GraphPad Prism 8 Software Package (US).

[2] = system: HepG2, HCT116 and RPMI 8226 cells; test: FMCA cytotoxicity, span over all three tested cell lines; type: cell-based; conditions: 72 h; for pIC50: lowest to highest mean IC50 in HepG2, HCT116, RPMI 8226, read-out: IC50 range over the three cell lines
Procedure: as §1, §2, §3

[3] = system: HCT116 cells; test: cells; type: cell-based; conditions: FMCA, 72 h incubation, 37 °C, 384-well, 1000 cells/well, mean and 95 % confidence interval, three independent experiments
Procedure: as §1, §2, §3

[4] = system: RPMI 8226 cells; test: cells; type: cell-based; conditions: FMCA, 72 h incubation, 37 °C, 384-well, 1000 cells/well, mean and 95 % confidence interval, three independent experiments
Procedure: as §1, §2, §3

pIC50 ([1]; Homo sapiens, HepG2) | pIC50 ([3]; Homo sapiens, HCT-116) | pIC50 ([4]; Homo sapiens, RPMI-8226) | Compound | pIC50 [1] | pIC50 [2] | pIC50 [3] | pIC50 [4] | fold less potent than MMAE (5) in each of the cell lines ([2]; ratio of IC50 values)
 |  |  | CC[C@H](C)[C@@H]([C@@H](CC(=O)N1C[C@@H](N)C[C@H]1[C@H](OC)[C@@H](C)C(=O)N[C@@H](Cc1ccccc1)C(=O)OC)OC)N(C)C(=O)[C@@H](NC(=O)[C@H](C(C)C)N(C)C)C(C)C [Aza‐OMe, 7, Azastatin methyl ester] | 7.70 | 6.77 to 8.01 | 6.77 | 8.01 | 
 |  |  | CCN[C@H]1C[C@@H]([C@H](OC)[C@@H](C)C(=O)N[C@@H](Cc2ccccc2)C(=O)OC)N(C(=O)C[C@@H](OC)[C@H]([C@@H](C)CC)N(C)C(=O)[C@@H](NC(=O)[C@H](C(C)C)N(C)C)C(C)C)C1 [N‐Et Aza‐OMe, 28, N‐ethyl azastatin methyl ester] | 7.96 | 7.00 to 8.32 | 7.00 | 8.32 | 
 |  |  | CC[C@H](C)[C@@H]([C@@H](CC(=O)N1C[C@@H](NC(=O)OCc2ccccc2)C[C@H]1[C@H](OC)[C@@H](C)C(=O)N[C@@H](Cc1ccccc1)C(=O)OC)OC)N(C)C(=O)[C@@H](NC(=O)[C@H](C(C)C)N(C)C)C(C)C [Cbz‐Aza‐OMe, 27, Cbz‐azastatin methyl ester] | 9.89 | 8.52 to 9.89 | 8.52 | 9.82 | 
6.40 | 6.36 | 7.31 | COc1cccc2c1C(=O)c1c(O)c3c(c(O)c1C2=O)C[C@@](O)(C(=O)CO)C[C@@H]3O[C@H]1C[C@H](N)[C@H](O)[C@H](C)O1 [Doxorubicin, Doxorubicin hydrochloride, reference compound] |  |  |  |  | 
 |  |  | CC[C@H](C)[C@@H]([C@@H](CC(=O)N1CCC[C@H]1[C@H](OC)[C@@H](C)C(=O)N[C@@H](Cc1ccccc1)C(=O)O)OC)N(C)C(=O)[C@@H](NC(=O)[C@@H](NC)C(C)C)C(C)C [MMAF, 6, monomethylauristatin F, reference compound] (H-[NMeV]V[Dil][Dolaproine]F-OH) |  |  |  |  | more than 100 fold

— article PMC7756782, “Rational Design of Azastatin as a Potential ADC Payload with Reduced Bystander Killing” (Chemmedchem, 2020)
